Measurements: ChEMBL document CHEMBL3272154, “Synthesis of 1- and 2-substituted indazoles as anthelmintic agents” (1976)
Active and inactive are the calls of the source. The rule behind the calls is not given here.

Columns and labels:
Trichinella spiralis [1] = assay: Anthelmintic activity against Trichinella spiralis infected in mouse assessed as reduction in nematode level at 25 mg/kg, po and 25 mg/kg, sc administered 8 hrs post infection; type: functional
Trichinella spiralis [2] = assay: Anthelmintic activity against Trichinella spiralis infected in sheep assessed as reduction in intestinal nematode burden at 25 mg/kg, po after 7 days post dose; type: functional; settings: 168 h
Trichinella spiralis [3] = assay: Anthelmintic activity against Trichinella spiralis infected in sheep assessed as reduction in intestinal nematode burden at 15 mg/kg, po after 7 days post dose; type: functional; settings: 168 h
Trichinella spiralis [4] = assay: Anthelmintic activity against Trichinella spiralis infected in po dosed sheep assessed as reduction in intestinal nematode burden; type: functional, organism-based

Row | SMILES | inhibition in vivo at 25 mg/kg (Trichinella spiralis [1]) [%] | inhibition in vivo at 25 mg/kg (Trichinella spiralis [2]) [%] | inhibition in vivo at 15 mg/kg (Trichinella spiralis [3]) [%] | Activity (Trichinella spiralis [4])
1 | CCCCc1ccc2[nH]c(NC(=O)OC)nc2c1 [PARBENDAZOLE] | 99 | 99 | – | –
2 | O=C(c1ccco1)n1cc2ccccc2n1 | 58 | – | 0 | –
3 | O=C(Nc1nc2ccccc2[nH]1)c1ccco1 | – | 99 | – | –
4 | COC(=O)Nc1nc2ccccc2[nH]1 [CARBENDAZIM] | 0 | 98 | – | –
5 | O=C(OCc1ccccc1)n1cc2ccccc2n1 | 74 | – | 0 | –
6 | CCCCCCCN(C)C(=O)Nc1nc2ccccc2[nH]1 | 14 | – | 0 | –
7 | CCCCCCN(C)C(=O)n1cc2cc(Cl)ccc2n1 | 40 | – | – | –
8 | CCCCCCN(C)C(=O)n1ncc2ccc([N+](=O)[O-])cc21 | 41 | – | – | –
9 | O=C(c1ccco1)n1ncc2ccccc21 | 16 | – | 0 | –
10 | CCCCCCCN(C)C(=O)n1cc2ccccc2n1 | 45 | – | 0 | –
11 | COC(=O)n1cc2ccccc2n1 | 26 | – | – | –
12 | COC(=O)n1ncc2ccccc21 | 23 | – | – | –
13 | O=C(c1cnc2ccccc2n1)n1cc2ccccc2n1 | 36 | – | – | –
14 | CCCCCCCN(C)C(=O)n1nc2ccccc2n1 | – | – | – | Active
